Measured values as given in PMC4042160, “In silico, in vitro and cellular analysis with a kinome-wide inhibitor panel correlates cellular LRRK2 dephosphorylation to inhibitor activity on LRRK2” (Frontiers in Molecular Neuroscience, 2014).
Read-outs that look alike come from different tables or passages of the source.

Assays:
[1] = molecular target: T1, full length LRRK2 protein (Homo sapiens, UniProt Q5S007); assay: In vitro LRRKtide kinase assay with full length recombinant LRRK2, dose-response (IC50/pIC50); assay type: biochemical; conditions: for IC50: read-out: IC50 in vitro (lrrktide)
T1 construct: compounds were tested in triplicate with full length LRRK2 protein; made in house
T1 sequence (Q5S007 whole entry): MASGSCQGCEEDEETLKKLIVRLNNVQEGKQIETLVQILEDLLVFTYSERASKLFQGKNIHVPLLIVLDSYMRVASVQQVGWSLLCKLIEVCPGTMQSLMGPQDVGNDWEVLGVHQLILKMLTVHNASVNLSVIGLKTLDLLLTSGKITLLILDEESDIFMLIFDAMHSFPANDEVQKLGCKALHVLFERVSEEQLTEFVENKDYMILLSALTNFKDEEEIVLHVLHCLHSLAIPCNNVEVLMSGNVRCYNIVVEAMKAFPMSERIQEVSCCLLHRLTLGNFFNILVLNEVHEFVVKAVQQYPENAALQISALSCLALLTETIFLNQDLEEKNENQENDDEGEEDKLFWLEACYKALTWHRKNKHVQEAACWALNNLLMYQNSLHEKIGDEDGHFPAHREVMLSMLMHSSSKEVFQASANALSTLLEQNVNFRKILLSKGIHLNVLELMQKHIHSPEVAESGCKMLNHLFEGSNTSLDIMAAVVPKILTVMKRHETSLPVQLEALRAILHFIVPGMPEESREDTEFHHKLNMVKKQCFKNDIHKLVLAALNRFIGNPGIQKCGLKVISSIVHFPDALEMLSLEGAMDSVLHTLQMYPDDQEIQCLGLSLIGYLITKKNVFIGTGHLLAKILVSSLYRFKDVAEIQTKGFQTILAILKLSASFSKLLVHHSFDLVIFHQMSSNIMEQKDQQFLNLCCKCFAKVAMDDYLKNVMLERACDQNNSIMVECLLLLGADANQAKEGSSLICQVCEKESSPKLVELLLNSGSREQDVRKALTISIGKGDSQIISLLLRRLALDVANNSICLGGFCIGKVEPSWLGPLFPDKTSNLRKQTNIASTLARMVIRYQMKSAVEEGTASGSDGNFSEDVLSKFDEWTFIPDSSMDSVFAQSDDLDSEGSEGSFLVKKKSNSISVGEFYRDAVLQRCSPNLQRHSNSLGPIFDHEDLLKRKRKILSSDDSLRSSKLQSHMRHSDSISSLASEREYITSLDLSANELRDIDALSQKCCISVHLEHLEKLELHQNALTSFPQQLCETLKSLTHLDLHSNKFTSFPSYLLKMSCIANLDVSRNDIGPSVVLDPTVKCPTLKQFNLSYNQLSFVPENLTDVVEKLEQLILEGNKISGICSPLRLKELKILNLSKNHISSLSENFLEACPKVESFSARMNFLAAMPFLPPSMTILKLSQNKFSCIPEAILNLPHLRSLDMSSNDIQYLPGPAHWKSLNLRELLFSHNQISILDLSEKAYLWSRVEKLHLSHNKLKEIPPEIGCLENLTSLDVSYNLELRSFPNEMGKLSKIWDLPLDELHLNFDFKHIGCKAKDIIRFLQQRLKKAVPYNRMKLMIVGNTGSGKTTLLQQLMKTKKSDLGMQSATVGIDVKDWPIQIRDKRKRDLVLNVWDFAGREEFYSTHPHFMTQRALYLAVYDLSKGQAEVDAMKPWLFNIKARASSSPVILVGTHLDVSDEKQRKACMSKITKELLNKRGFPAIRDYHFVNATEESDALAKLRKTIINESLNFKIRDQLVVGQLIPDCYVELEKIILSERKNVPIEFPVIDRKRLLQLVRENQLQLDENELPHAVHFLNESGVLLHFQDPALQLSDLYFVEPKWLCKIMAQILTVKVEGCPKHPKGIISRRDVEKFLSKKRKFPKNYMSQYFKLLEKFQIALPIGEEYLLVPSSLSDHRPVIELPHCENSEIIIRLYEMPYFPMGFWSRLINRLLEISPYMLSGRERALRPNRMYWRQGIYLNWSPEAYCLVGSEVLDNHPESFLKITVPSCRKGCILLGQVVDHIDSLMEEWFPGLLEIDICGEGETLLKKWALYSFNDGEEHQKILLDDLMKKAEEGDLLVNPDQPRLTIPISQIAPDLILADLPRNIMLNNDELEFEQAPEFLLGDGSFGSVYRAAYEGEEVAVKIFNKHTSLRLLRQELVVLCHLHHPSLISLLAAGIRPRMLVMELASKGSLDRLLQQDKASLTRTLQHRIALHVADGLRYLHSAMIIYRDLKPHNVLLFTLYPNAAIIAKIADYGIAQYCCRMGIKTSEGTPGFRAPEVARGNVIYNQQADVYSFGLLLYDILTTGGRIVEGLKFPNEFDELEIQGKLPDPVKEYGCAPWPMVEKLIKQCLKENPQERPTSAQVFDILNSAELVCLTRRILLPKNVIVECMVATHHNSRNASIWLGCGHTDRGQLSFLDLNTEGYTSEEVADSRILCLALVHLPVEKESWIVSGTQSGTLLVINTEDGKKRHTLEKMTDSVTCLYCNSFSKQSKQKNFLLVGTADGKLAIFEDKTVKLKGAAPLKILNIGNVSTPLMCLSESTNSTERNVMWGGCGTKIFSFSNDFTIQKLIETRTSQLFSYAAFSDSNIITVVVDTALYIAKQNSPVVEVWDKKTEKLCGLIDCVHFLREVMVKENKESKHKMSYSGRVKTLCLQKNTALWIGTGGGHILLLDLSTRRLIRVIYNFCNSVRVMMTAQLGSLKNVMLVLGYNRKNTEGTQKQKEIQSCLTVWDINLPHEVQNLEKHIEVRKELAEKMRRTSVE

[2] = molecular target: T2, LRRK2 phospho-Ser935 (Homo sapiens, UniProt Q5S007); assay: Cellular LRRK2 phosphoserine 935 dephosphorylation spotblot assay in SH-SY5Y cells stably expressing 3xFlag-LRRK2; assay type: cell-based; conditions: for IC50: read-out: IC50 cellular (pS935); for Phosphorylation level relative to solvent (%) (cellular pS935 assay): @ 5 μM for 2 h, SH-SY5Y stably expressing LRRK2, pS935/total LRRK2; for dephosphorylation of LRRK2 (Ser935): 5 μM, 2 h, SH-SY5Y
T2 construct: expressed in transfected cells
T2 sequence (Q5S007 whole entry): as above

[3] = molecular target: T3, GST-tagged truncated LRRK2 containing residues 970 to 2527 (Homo sapiens, UniProt Q5S007); assay: In vitro LRRKtide peptide-substrate kinase assay, single dose testing (10 μM); assay type: biochemical; conditions: for % LRRKtide phosphorylation relative to solvent: LRRKtide assay @ 10 μM inhibitor, GST-LRRK2 970-2527, 10 μM ATP, mean, N = 3, solvent control = 100%; for activity on LRRK2 kinase activity in vitro (in words): no activity at 10 μM
T3 construct: GST-tagged truncated LRRK2 containing residues 970 to 2527 (Life Technologies); purchased Life Technologies
T3 sequence (Q5S007 970-2527): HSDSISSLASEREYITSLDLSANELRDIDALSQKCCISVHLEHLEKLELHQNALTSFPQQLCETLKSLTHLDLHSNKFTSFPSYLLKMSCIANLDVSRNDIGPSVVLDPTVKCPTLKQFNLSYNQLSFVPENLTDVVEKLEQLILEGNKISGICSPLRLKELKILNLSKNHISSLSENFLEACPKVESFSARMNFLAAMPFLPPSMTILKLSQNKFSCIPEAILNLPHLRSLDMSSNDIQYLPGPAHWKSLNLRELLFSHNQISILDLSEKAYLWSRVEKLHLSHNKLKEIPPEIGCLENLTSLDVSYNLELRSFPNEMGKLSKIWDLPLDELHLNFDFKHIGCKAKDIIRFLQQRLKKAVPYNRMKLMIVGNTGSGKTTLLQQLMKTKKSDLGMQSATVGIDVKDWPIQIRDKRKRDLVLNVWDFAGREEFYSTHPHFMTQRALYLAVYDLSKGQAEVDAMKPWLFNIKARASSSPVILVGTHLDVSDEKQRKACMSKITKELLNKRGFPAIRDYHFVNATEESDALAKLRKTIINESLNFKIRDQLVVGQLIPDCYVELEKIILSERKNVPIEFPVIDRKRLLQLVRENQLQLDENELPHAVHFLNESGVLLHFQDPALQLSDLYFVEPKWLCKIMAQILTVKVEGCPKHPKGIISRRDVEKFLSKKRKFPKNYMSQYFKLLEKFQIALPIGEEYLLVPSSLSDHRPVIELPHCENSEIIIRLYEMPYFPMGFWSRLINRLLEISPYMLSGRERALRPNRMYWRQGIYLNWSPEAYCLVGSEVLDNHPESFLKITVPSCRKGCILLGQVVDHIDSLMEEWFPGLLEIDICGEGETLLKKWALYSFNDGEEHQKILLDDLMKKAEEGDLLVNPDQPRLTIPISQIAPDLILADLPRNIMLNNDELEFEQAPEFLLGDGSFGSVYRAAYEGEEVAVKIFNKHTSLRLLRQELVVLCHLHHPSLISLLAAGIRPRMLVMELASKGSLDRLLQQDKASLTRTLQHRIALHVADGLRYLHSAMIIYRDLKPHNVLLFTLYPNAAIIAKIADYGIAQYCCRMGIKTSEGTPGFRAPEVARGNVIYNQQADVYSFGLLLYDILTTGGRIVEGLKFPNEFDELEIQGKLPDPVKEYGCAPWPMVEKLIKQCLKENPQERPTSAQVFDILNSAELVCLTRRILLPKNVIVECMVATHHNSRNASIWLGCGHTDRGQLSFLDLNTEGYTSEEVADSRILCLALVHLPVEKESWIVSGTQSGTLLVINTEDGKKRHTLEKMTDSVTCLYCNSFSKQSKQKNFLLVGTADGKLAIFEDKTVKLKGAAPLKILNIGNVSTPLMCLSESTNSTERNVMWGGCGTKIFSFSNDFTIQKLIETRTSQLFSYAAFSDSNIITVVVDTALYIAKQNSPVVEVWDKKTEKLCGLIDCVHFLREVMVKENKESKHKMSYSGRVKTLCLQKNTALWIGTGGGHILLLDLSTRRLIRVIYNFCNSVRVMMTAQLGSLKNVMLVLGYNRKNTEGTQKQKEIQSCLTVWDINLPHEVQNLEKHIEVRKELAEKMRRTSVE

[4] = LRRKtide phosphorylation, dose-response
[5] = pS935 level as % of control, 5 μM for 2 h, SH-SY5Y cells with stable expression of LRRK2
[6] = pS935 dephosphorylation, SH-SY5Y cells with stable expression of LRRK2

Compound: CCn1cnc2c(Nc3cccc(Cl)c3)nc(N[C@H]3CCCC[C@H]3N)nc21 [Cdk1 inhibitor. CGP74514A]
- pIC50 in vitro (lrrktide) [1, 4]: 5.46
- IC50 [1, 4]: 3470 nM
- Cellular pS935 (% @ 5 μM) [2, 5]: 83.35%

Compound: COc1cc(N2CCOCC2)ccc1Nc1ncc(F)c(Nc2ccccc2NS(C)(=O)=O)n1 [CZC25146]
- pIC50 in vitro (lrrktide) [1, 4]: 8.75
- IC50 [1, 4]: 1.78 nM
- pIC50 cellular (pS935) [2, 6]: 7.36
- IC50 [2, 6]: 43.6 nM
- Cellular pS935 (% @ 5 μM) [2, 5]: 8.62%

Compound: COc1cc(C(=O)N2CCC(N3CCN(C)CC3)CC2)ccc1Nc1ncc2c(n1)N(C)c1ccccc1C(=O)N2C [LRRK2 IN1]
- pIC50 in vitro (lrrktide) [1]: 8.45
- IC50 [1]: 3.54 nM
- Cellular pS935 (% @ 5 μM) [2]: 9.32%
- pIC50 cellular (pS935) [2]: 6.55
- IC50 [2]: 280 nM

Compound: O=C1Nc2ccccc2/C1=C1/Nc2ccccc2/C1=N\O [Indirubin-3'-monoxime]
- pIC50 in vitro (lrrktide) [1, 4]: 5.75
- IC50 [1, 4]: 1790 nM
- Cellular pS935 (% @ 5 μM) [2, 5]: 85.53%

Compound: Nc1cccc(-c2cc3c(Oc4cccc(O)c4)ncnc3[nH]2)c1 [GSK-3b inhibitor XII, TWS119, TWS119]
- % LRRKtide phosphorylation relative to solvent [3]: 13.54%
- Phosphorylation level relative to solvent (%) (cellular pS935 assay) [2]: 122.47%

Compound: O=C(O)c1ccc2c3c1cccc3c(=O)n1c3ccccc3nc21 [STO-609]
- % LRRKtide phosphorylation relative to solvent [3]: 15.01%
- Phosphorylation level relative to solvent (%) (cellular pS935 assay) [2]: 121.51%

Compound: CN(C)CCCn1cc(C2=C(c3c[nH]c4ccccc34)C(=O)NC2=O)c2ccccc21 [Bisindolylmaleimide I]
- % LRRKtide phosphorylation relative to solvent [3]: 4.46%
- Phosphorylation level relative to solvent (%) (cellular pS935 assay) [2]: 73.14%

Compound: COc1cc2c(cc1OC)-c1[nH]nc(Nc3cccc(F)c3)c1C2 [PDGF receptor tyrosine kinase inhibitor IV]
- % LRRKtide phosphorylation relative to solvent [3]: 23.12%
- Phosphorylation level relative to solvent (%) (cellular pS935 assay) [2]: 57.30%

Compound: Nc1ncnc2c1c(-c1ccc(Oc3ccccc3)cc1)cn2C1CCCC1 [Lck inhibitor]
- % LRRKtide phosphorylation relative to solvent [3]: 15.36%
- Phosphorylation level relative to solvent (%) (cellular pS935 assay) [2]: 61.54%

Compound: Nc1nccc(-c2c(-c3ccc(F)cc3)ncn2C2CCNCC2)n1 [SB 220025]
- % LRRKtide phosphorylation relative to solvent [3]: 73.68%
- Phosphorylation level relative to solvent (%) (cellular pS935 assay) [2]: 70.97%

Compound: O=C1NC(=O)/C(=C/c2ccc3nccnc3c2)S1 [PI 3-Kg inhibitor]
- % LRRKtide phosphorylation relative to solvent [3]: 62.51%
- Phosphorylation level relative to solvent (%) (cellular pS935 assay) [2]: 79.50%

Compound: c1ccc(-c2cnc(Nc3ccc(OCCN4CCCC4)cc3)s2)cc1 [Flt-3 inhibitor III]
- % LRRKtide phosphorylation relative to solvent [3]: 12.56%
- Phosphorylation level relative to solvent (%) (cellular pS935 assay) [2]: 54.21%

Compound: CN([C@@H](Cc1ccc(OS(=O)(=O)c2cccc3cnccc23)cc1)C(=O)N1CCN(c2ccccc2)CC1)S(=O)(=O)c1cccc2cnccc12 [KN-62]
- % LRRKtide phosphorylation relative to solvent [3]: 17.20%
- Phosphorylation level relative to solvent (%) (cellular pS935 assay) [2]: 84.73%

Compound: O=C1NC(=O)c2c1c1c3ccccc3n3c1c1c2c2ccccc2n1C1CCC3O1 [SB 218078]
- % LRRKtide phosphorylation relative to solvent [3]: 1.94%
- Phosphorylation level relative to solvent (%) (cellular pS935 assay) [2]: 89.51%

Compound: CCN1/C(=C/C(C)=O)Sc2ccc(OC)cc21 [Cdc2-like kinase inhibitor, TG003, TG003]
- % LRRKtide phosphorylation relative to solvent [3]: 37.41%
- Phosphorylation level relative to solvent (%) (cellular pS935 assay) [2]: 81.30%

Compound: CCCCc1c(-c2ccc(O)cc2)[nH]c2nccnc12 [Aloisine A, RP107, Aloisine A]
- % LRRKtide phosphorylation relative to solvent [3]: 23.85%
- Phosphorylation level relative to solvent (%) (cellular pS935 assay) [2]: 102.87%

Compound: Cc1ccc(NC2=CC(=O)c3sc(C)nc3C2=O)cc1 [Cdk4 inhibitor III]
- % LRRKtide phosphorylation relative to solvent [3]: 26.80%
- Phosphorylation level relative to solvent (%) (cellular pS935 assay) [2]: 48.63%

Compound: O=C(Nc1ccc(Cl)cc1)c1ccccc1NCc1ccncc1 [VEGF receptor tyrosine kinase inhibitor II]
- % LRRKtide phosphorylation relative to solvent [3]: 91.34%
- Phosphorylation level relative to solvent (%) (cellular pS935 assay) [2]: 65.97%

Compound: CC(C)(C)c1nc2c3cc[nH]c(=O)c3c3cc(F)ccc3c2[nH]1 [JAK inhibitor I]
- % LRRKtide phosphorylation relative to solvent [3]: 3.20%
- Phosphorylation level relative to solvent (%) (cellular pS935 assay) [2]: 47.17%

Compound: CCCNC(=O)Nc1ccc(Oc2ncnc3cc(OC)c(OC)cc23)cc1Cl
- pIC50 in vitro (lrrktide) [1, 4]: <5
- IC50 [1, 4]: > 10000 nM
- Cellular pS935 (% @ 5 μM) [2, 5]: 62.48%

Compound: CCN(CC)CCCCN1c2ccccc2Oc2ccc(Cl)cc21 [Akt inhibitor X]
- % LRRKtide phosphorylation relative to solvent [3]: 61.91%
- Phosphorylation level relative to solvent (%) (cellular pS935 assay) [2]: 69.13%

Compound: COc1ccc(-c2cnc3c(-c4ccsc4)cnn3c2)cc1 [VEGF receptor 2 kinase inhibitor IV]
- % LRRKtide phosphorylation relative to solvent [3]: 77.83%
- Phosphorylation level relative to solvent (%) (cellular pS935 assay) [2]: 48.48%

Compound: CCOc1nc(NC(=O)Cc2cc(OC)ccc2OC)cc(N)c1C#N [JNK inhibitor VIII]
- % LRRKtide phosphorylation relative to solvent [3]: 105.45%
- Phosphorylation level relative to solvent (%) (cellular pS935 assay) [2]: 93.08%

Compound: O=C1NC(=O)c2c1c1c3ccccc3[nH]c1n1cncc21 [Isogranulatimide]
- % LRRKtide phosphorylation relative to solvent [3]: 4.64%
- Phosphorylation level relative to solvent (%) (cellular pS935 assay) [2]: 77.38%

Compound: O=C(c1ccccc1)c1ccc(N2CCOCC2)cc1O [DNA-PK inhibitor V]
- % LRRKtide phosphorylation relative to solvent [3]: 89.01%
- activity on LRRK2 kinase activity in vitro (in words) [3]: inactive
- dephosphorylation of LRRK2 (Ser935) [2]: ~ 50%
- Phosphorylation level relative to solvent (%) (cellular pS935 assay) [2]: 48.36%

Compound: NC(=O)c1ccc(-c2nc(-c3ccc4c(c3)OCCO4)c(-c3ccccn3)[nH]2)cc1 [Casein kinase I inhibitor, D4476, D4476]
- % LRRKtide phosphorylation relative to solvent [3]: 60.00%
- Phosphorylation level relative to solvent (%) (cellular pS935 assay) [2]: 97.88%

Compound: Cn1sc(=O)n(Cc2ccccc2)c1=O [GSK-3b inhibitor I]
- % LRRKtide phosphorylation relative to solvent [3]: 106.35%
- Phosphorylation level relative to solvent (%) (cellular pS935 assay) [2]: 95.90%

Compound: COc1cc2nccc(Oc3ccc(NC(=S)NC(=O)c4ccccc4C)cc3)c2cc1OC [PDGF RTK inhibitor]
- % LRRKtide phosphorylation relative to solvent [3]: 34.30%
- Phosphorylation level relative to solvent (%) (cellular pS935 assay) [2]: 77.68%

Compound: O=c1cc(N2CCOCC2)oc2c(-c3ccccc3)cccc12 [LY 294002]
- % LRRKtide phosphorylation relative to solvent [3]: 90.73%
- Phosphorylation level relative to solvent (%) (cellular pS935 assay) [2]: 74.17%

Compound: O=[N+]([O-])/C=C/c1ccc2c(c1)OCO2 [Syk inhibitor III]
- % LRRKtide phosphorylation relative to solvent [3]: 82.95%
- Phosphorylation level relative to solvent (%) (cellular pS935 assay) [2]: 68.01%

Compound: CSc1nc(-c2ccnc(NC(C)c3ccccc3)c2)c(-c2ccc(F)cc2)[nH]1 (stereo not shown) [p38 MAP kinase inhibitor III]
- % LRRKtide phosphorylation relative to solvent [3]: 112.29%
- Phosphorylation level relative to solvent (%) (cellular pS935 assay) [2]: 83.74%

Compound: O=c1cc(-c2cccc3c2Sc2ccccc2S3)oc(N2CCOCC2)c1 [ATM kinase inhibitor]
- % LRRKtide phosphorylation relative to solvent [3]: 86.09%
- Phosphorylation level relative to solvent (%) (cellular pS935 assay) [2]: 103.28%

Compound: Syk inhibitor
- pIC50 in vitro (lrrktide) [1, 4]: 6.20
- IC50 [1, 4]: 632 nM
- Cellular pS935 (% @ 5 μM) [2, 5]: 57.29%

Compound: C[S+]([O-])c1ccc(-c2nc(-c3ccncc3)c(-c3ccc(F)cc3)[nH]2)cc1 (stereo not shown) [SB 203580]
- % LRRKtide phosphorylation relative to solvent [3]: 100.48%
- Phosphorylation level relative to solvent (%) (cellular pS935 assay) [2]: 90.32%

Compound: CCn1cnc2c(Nc3cccc(Cl)c3)nc(N[C@@H]3CCCC[C@@H]3N)nc21 [Cdk1 inhibitor, CGP74514A, CGP74514A]
- % LRRKtide phosphorylation relative to solvent [3]: 3.91%
- Phosphorylation level relative to solvent (%) (cellular pS935 assay) [2]: 83.35%

Compound: O=C(O)/C=C/c1cc(Br)c(Br)c(Br)c1Br [Casein kinase II inhibitor III, TBCA, TBCA]
- % LRRKtide phosphorylation relative to solvent [3]: 16.78%
- Phosphorylation level relative to solvent (%) (cellular pS935 assay) [2]: 116.47%

Compound: O=C(NC(NC(=S)Nc1ccc(F)c([N+](=O)[O-])c1)C(Cl)(Cl)Cl)C(c1ccccc1)c1ccccc1 (stereo not shown) [ATM/ATR kinase inhibitor]
- % LRRKtide phosphorylation relative to solvent [3]: 131.38%
- Phosphorylation level relative to solvent (%) (cellular pS935 assay) [2]: 88.64%

Compound: CCc1[nH]c(-c2ccc(OC)cc2)nc1-c1ccncc1 [SB 202474]
- % LRRKtide phosphorylation relative to solvent [3]: 47.64%
- Phosphorylation level relative to solvent (%) (cellular pS935 assay) [2]: 112.24%

Compound: O=C(Nc1nc2ccccc2n1CCN1CCOCC1)c1cccc([N+](=O)[O-])c1 [IRAK-1/4 inhibitor]
- % LRRKtide phosphorylation relative to solvent [3]: 55.78%
- Phosphorylation level relative to solvent (%) (cellular pS935 assay) [2]: 71.83%

Compound: O=c1[nH][nH]c2nnc(-c3c(-c4ccccc4)nn4ccccc34)cc12 [ERK inhibitor II, negative control]
- % LRRKtide phosphorylation relative to solvent [3]: 97.07%
- Phosphorylation level relative to solvent (%) (cellular pS935 assay) [2]: 77.12%

Compound: PKR inhibitor. negative control
- pIC50 in vitro (lrrktide) [1, 4]: 6.53
- IC50 [1, 4]: 297 nM
- Cellular pS935 (% @ 5 μM) [2, 5]: 72.69%

Compound: O=c1cc(N2CCNCC2)oc2c(-c3ccccc3)cccc12 [LY 303511]
- % LRRKtide phosphorylation relative to solvent [3]: 107.82%
- activity on LRRK2 kinase activity in vitro (in words) [3]: inactive
- dephosphorylation of LRRK2 (Ser935) [2]: ~ 50%
- Phosphorylation level relative to solvent (%) (cellular pS935 assay) [2]: 47.60%

Compound: O=C(c1cc2cc(O)ccc2[nH]1)c1cc2cc(O)ccc2[nH]1 [Flt-3 inhibitor II]
- % LRRKtide phosphorylation relative to solvent [3]: 2.16%
- Phosphorylation level relative to solvent (%) (cellular pS935 assay) [2]: 53.00%

Compound: CC(C)(C)c1cc(C=C(C#N)C#N)cc(Br)c1O [AG 1024]
- % LRRKtide phosphorylation relative to solvent [3]: 51.38%
- Phosphorylation level relative to solvent (%) (cellular pS935 assay) [2]: 94.37%
